Assay results taken from the supplement of paper PMC10307832.

Tests used:
Experiment in all cases: relative viability (nuclei count vs DMSO), 5 days (fraction); higher = more cells survive
[1] = compound: COc1cc(Nc2ncc(F)c(Nc3ccc4c(n3)NC(=O)C(C)(C)O4)n2)cc(OC)c1OC [R406] + Cc1nc(NC(=O)N2CCC[C@H]2C(N)=O)sc1-c1ccnc(C(C)(C)C(F)(F)F)c1 [Alpelisib] (partner 2 µM)
Method in brief: (§1)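 For relative viability, nuclei counts in treated wells were divided by those in vehicle wells. Lung cancer cell lines had been pin-tool dosed in 1536-well plates the day after seeding and cultured for 5 days, then fixed and stained in one step (final 0.05% Triton X-100, 1% formaldehyde, 1 ug/ml Hoechst) and imaged at 4×. Doses were one drug alone or a fixed anchor-drug dose plus five library-drug doses (not always all listed) in √10 steps, and values are duplicate-plate medians.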

[2] = compound: O=C(/C=C/c1cccnc1)NCCCCC1CCN(C(=O)c2ccccc2)CC1 [Daporinad] + Nc1nc2[nH]cc(CCc3ccc(C(=O)N[C@@H](CCC(=O)O)C(=O)O)cc3)c2c(=O)[nH]1 [Pemetrexed] (partner 0.2 µM)
Method in brief: as §1

[3] = compound: COc1cc(Nc2ncc(F)c(Nc3ccc4c(n3)NC(=O)C(C)(C)O4)n2)cc(OC)c1OC [R406]
Method in brief: (§2)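 Following overnight incubation at 37 °C, lung cancer cell lines in 1536-well plates were pinned with five library-drug doses (not always all listed) in √10 steps on vehicle-anchored plates. The cells then spent 5 days without medium change before a combined fix, permeabilisation and Hoechst stain, 4× imaging and MetaXpress nuclear counts. Viability is the treated-to-vehicle ratio of nuclei, taken as the median across plates. Only plates with control CV below 25% and at least one doubling passed.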

[4] = compound: O=C(/C=C/c1cccnc1)NCCCCC1CCN(C(=O)c2ccccc2)CC1 [Daporinad]
Method in brief: as §2

Cell Line | relative viability ([1]; first compound 0.08 µM) | relative viability ([1]; first compound 0.253 µM) | relative viability ([1]; first compound 0.8 µM) | relative viability ([1]; first compound 2.53 µM) | relative viability ([1]; first compound 8 µM) | relative viability ([2]; first compound 0.0005 µM) | relative viability ([2]; first compound 0.001581 µM) | relative viability ([2]; first compound 0.005 µM) | relative viability ([2]; first compound 0.01581 µM) | relative viability ([3]; 0.08 µM) | relative viability ([3]; 0.253 µM) | relative viability ([3]; 0.8 µM) | relative viability ([3]; 2.53 µM) | relative viability ([3]; 8 µM) | relative viability ([4]; 0.0005 µM) | relative viability ([4]; 0.001581 µM) | relative viability ([4]; 0.005 µM) | relative viability ([4]; 0.01581 µM)
NCI-H647 | 0.977 | 1.03 | 1.52 | 0.461 | 0.12 | 0.193 | 0.191 | 0.173 | 0.21 | 0.943 | 1.13 | 1.1 | 0.538 | 0.233 | 0.914 | 1.11 | 1.07 | 1.05
A-427 | 1.14 | 1.17 | 1.12 | 0.928 | 0.843 | 0.981 | 1.02 | 0.937 | 0.662 | 0.974 | 1.23 | 1.14 | 0.708 | 0.639 | 0.952 | 1.12 | 0.982 | 0.602
EMC-BAC-2 | 0.773 | 0.786 | 0.801 | 0.628 | 0.384 | 0.428 | 0.482 | 0.421 | 0.388 | 0.917 | 1.13 | 1.08 | 0.849 | 0.405 | 1.01 | 1.09 | 0.766 | 0.487
NCI-H460 | 0.495 | 0.476 | 0.665 | – | 0.0573 | 0.0681 | 0.0617 | 0.0618 | 0.0602 | 0.965 | 1.11 | 1.09 | 0.966 | 0.766 | 0.996 | 1.02 | 0.953 | 1.02
LCLC-103H | 0.906 | 1.1 | 0.901 | 0.901 | 0.741 | 0.497 | 0.453 | 0.508 | 0.471 | 0.889 | 1.04 | 0.952 | 0.84 | 0.579 | 0.928 | 1.16 | 1.04 | 1
HCC-827 | 1.04 | 0.903 | 1.03 | 0.827 | 0.282 | 0.295 | 0.268 | 0.281 | 0.256 | 1.09 | 1.07 | 1.1 | 0.903 | 0.672 | 1.02 | 1.06 | 1.03 | 1.1
NCI-H1355 | 0.838 | 0.917 | 0.985 | 0.547 | 0.497 | 1 | 1.1 | 1.03 | 0.873 | 0.977 | 1.13 | 1.11 | 0.626 | 0.61 | 0.968 | 1.13 | 1.14 | 1.03
NCI-H1734 | 0.67 | 0.732 | 0.748 | 0.521 | 0.465 | 0.473 | 0.422 | 0.425 | 0.353 | 0.985 | 1.18 | 1.16 | 0.269 | 0.418 | 1.04 | 1.14 | 0.975 | 0.453
HARA | 0.801 | 0.721 | 0.879 | 0.637 | 0.249 | 0.24 | 0.258 | 0.227 | 0.276 | 0.975 | 0.965 | 1.1 | 0.676 | 0.365 | 0.903 | 0.958 | 0.964 | 0.583
HCC-15 | 0.859 | 0.887 | 0.981 | – | 0.753 | 0.225 | 0.22 | 0.237 | 0.199 | 0.919 | 1.23 | 1.17 | 0.81 | 0.629 | 0.967 | 1.15 | 1.14 | 1.05
LCLC-97TM1 | 0.209 | 0.265 | 0.267 | 0.202 | 0.256 | 0.17 | 0.2 | 0.165 | 0.185 | 0.885 | 1.18 | 0.964 | 0.804 | 0.632 | 0.948 | 1.15 | 1.07 | 0.941
SK-LU-1 | 1.01 | 0.849 | 1.05 | 0.368 | 0.203 | 1.04 | 0.998 | 1.09 | 0.941 | 0.955 | 1.16 | 1.15 | 0.513 | 0.386 | 1.06 | 1.11 | 1.19 | 1.12
NCI-H1651 | 0.9 | 1.03 | 1.04 | 0.699 | 0.512 | 0.602 | 0.557 | 0.659 | 0.545 | 0.926 | 1.1 | 1.05 | 0.899 | 0.667 | 1.01 | 1.03 | 1.05 | 0.874
NCI-H1793 | 1.08 | 0.691 | 0.921 | 0.434 | 0.32 | 0.727 | 1.03 | 1 | 1.05 | 0.731 | 1.17 | 1.13 | 0.159 | 0.279 | 0.801 | 0.959 | 0.984 | 1.09
NCI-H2023 | 0.541 | 0.572 | 0.685 | 0.409 | 0.474 | 0.224 | 0.231 | 0.267 | 0.202 | 0.902 | 1.05 | 1.12 | 0.388 | 0.241 | 0.982 | 1.15 | 1.09 | 0.987
LC-2-ad | 0.769 | 0.802 | 0.909 | 0.329 | 0.0848 | 0.263 | 0.27 | 0.285 | 0.256 | 0.965 | 0.987 | 1.04 | 0.539 | 0.312 | 0.934 | 1.1 | 1.03 | 0.957
NCI-H1703 | 0.307 | 0.281 | 0.368 | 0.183 | 0.173 | – | – | – | – | 0.966 | 0.924 | 1.21 | 0.238 | 0.172 | 1.03 | 1.2 | 1.2 | 0.934
NCI-H1437 | 1 | 1.09 | 1.17 | 0.928 | 0.487 | 0.312 | 0.313 | 0.316 | 0.332 | 0.994 | 1.08 | 1.06 | 0.884 | 0.622 | 0.891 | 1.01 | 1.01 | 0.99
